The results in this text go back to patent publication US9539309B2, “Controlled release of growth factors and signaling molecules for promoting angiogenesis” (President and Fellows of Harvard College, priority 2008, dated 2017).

The test system of data set [1] is cells in small intestines. Description: in vivo effect of DAPT on the cells in small intestines (H&E, alcian blue, Ki67, HES-1 staining). Further details: species or system mice. From the text: FIG. 6 is a series of photomicrographs showing the effect of DAPT on gastrointestinal tissue. In vivo model was used to test the effect of DAPT delivered from alginate gel system and from intraperitoneal injection on the cells in small intestines. gel: alginate gel. ip: intraperitoneal injection. H&E, alcian blue, Ki67 and HES-1 are the four different staining methods to characterize the crypt cells in small intestines. Ki-67 was used to stain the proliferative cells. Loss of Notch signaling can alter the proliferation rate of crypt cells. HES-1 staining was to examine the expression of a known Notch target gene in crypts. Alcian blue staining was to examine the deposition of glycosaminoglycan molecules. Loss of Notch signaling can result in more deposition of glycosaminoglycan molecules. Expression of HES-1 (hairy and enhancer of split 1), a member of basic helix-loop-helix family of transcription factors and a known Notch target gene in crypts was examined. Loss of Notch signaling can alter the proliferation rate of crypt cells, as shown by Ki-67 staining the proliferative cells. In addition, Notch inhibition has been reported to alter the balance between proliferative crypt cells and goblet cells, resulting in more deposition of glycosaminoglycan molecules, as characterized by alcian blue staining.

In data set [2] the test system is Endothelial cells isolated from diabetics. Description: in vitro sprouting model with endothelial cells isolated from diabetics. Format: cell-based. From the text: In addition, there is an optimal VEGF concentration to induce most sprouts.
Endothelial cells isolated from diabetics produce more sprouts in the presence of a combination of both gamma-secretase inhibitors with VEGF. (FIG. 2, *P<0.05) than with either of them alone, which implies the need of a combination of both growth factor and DAPT.

The mark [3] stands for this setting: DAPT delivered via intraperitoneal injection.

As to `C[C@H](NC(=O)Cc1cc(F)cc(F)c1)C(=O)N[C@H](C(=O)OC(C)(C)C)c1ccccc1` [DAPT, N—[N-(3,5-Difluorophenacetyl-L-alanyl)]-S-phenylglycine t-butyl ester], the “cell differentiation at distant sites (small intestines)” value in data set [1] (DAPT delivered from alginate gel system, compared with intraperitoneal injection, FIG. 6) was “does not alter cell differentiation at distant sites as much”. For the same molecule, in data set [1] (DAPT delivered from the gel system), the region of effects entry is reported as “only has effects in the local region”. Further, in data set [1] (setting [3]), the “Notch target gene expression, HES-1 staining” value is on record as “downregulation of Notch target gene expression”; the “glycosaminoglycans, alcian blue staining” value is reported as “presence of extra glycosaminoglycans”; the “intestinal structure, H&E staining” value is recorded as “disrupts normal intestinal structure”; the “proliferating cells, Ki67 staining” value is “loss of proliferating cells”. The “effects at distant organs (e.g., small intestines)” value in data set [1] (DAPT delivered via intraperitoneal injection, goes into the systemic circulation) is “led to adverse effects at distant organs”.
For the molecule VEGF, in data set [2] (VEGF alone, FIG. 3), the “concentration of VEGF that gives the most sprouts if used alone” value is 50 ng/mL. Further, the “response to VEGF, capability of forming sprouts” value in data set [2] (endothelial cells from diabetics compared to age-matched non-diabetics, FIG. 1, P<0.05) is recorded as “reduced response”.
